One data set concerns the target T1, 5-HT1A receptor (Sus scrofa, UniProt A0A4X1UTF5).
T1 construct: membrane preparations from porcine cortical material; from tissue; host or cells: porcine cerebral cortex membranes
T1 sequence (A0A4X1UTF5 1-422): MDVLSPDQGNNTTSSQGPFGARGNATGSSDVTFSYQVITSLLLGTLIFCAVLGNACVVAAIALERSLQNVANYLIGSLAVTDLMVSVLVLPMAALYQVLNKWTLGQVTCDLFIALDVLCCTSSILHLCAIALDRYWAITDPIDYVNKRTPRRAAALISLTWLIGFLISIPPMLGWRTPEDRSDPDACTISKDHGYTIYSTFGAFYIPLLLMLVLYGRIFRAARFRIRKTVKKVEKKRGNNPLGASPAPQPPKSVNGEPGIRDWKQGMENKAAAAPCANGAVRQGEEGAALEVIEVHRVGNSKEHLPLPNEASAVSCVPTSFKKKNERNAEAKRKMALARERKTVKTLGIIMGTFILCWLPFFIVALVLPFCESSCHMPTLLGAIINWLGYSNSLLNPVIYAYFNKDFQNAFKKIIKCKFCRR
Kind of data set: radioligand binding, porcine cortical membranes, [^3H]8-OH-DPAT and [^3H]WAY 100635. The conditions noted are these: porcine cortical membranes.

For the next data set, the target named is T2, human D2long receptor (Homo sapiens, UniProt P14416).
T2 construct: expressed in transfected cells; host or cells: Chinese hamster ovary (CHO) cells, membranes
T2 sequence (P14416 whole entry): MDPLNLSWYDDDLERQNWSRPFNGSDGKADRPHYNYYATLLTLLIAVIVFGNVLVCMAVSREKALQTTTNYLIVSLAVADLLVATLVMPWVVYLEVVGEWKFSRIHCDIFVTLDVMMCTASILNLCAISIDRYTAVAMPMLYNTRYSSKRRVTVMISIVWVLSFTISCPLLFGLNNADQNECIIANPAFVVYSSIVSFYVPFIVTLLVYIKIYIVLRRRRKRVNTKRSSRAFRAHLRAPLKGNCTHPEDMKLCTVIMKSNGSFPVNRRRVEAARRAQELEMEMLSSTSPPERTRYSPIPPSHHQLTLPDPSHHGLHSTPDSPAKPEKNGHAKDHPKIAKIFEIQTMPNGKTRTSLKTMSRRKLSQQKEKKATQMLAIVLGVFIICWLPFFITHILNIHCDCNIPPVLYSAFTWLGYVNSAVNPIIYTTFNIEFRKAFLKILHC
Kind of data set: radioligand binding with [^3H]spiperone, D2long. Conditions: [^3H]spiperone, CHO membranes, mean of 2 to 4 experiments; read-out: Ki D2lo. The procedure: (§1) For the determination of binding affinity to the receptors of the dopamine D2 family membranes were established carrying the human D2long, D2short, D3 or D4.4 receptor subtype expressed in Chinese hamster ovary cell lines. In principle, the binding experiments started when incubating an appropriate amount of membrane with the radioligand [^3H]spiperone and the particular test compounds diluted in a wide range of different concentrations from subnanomolar up to micromolar.

For the next data set, the target named is T3, human D4.4 receptor (Homo sapiens, UniProt P21917).
T3 construct: expressed in transfected cells; host or cells: Chinese hamster ovary (CHO) cells, membranes
T3 sequence (P21917 1-419): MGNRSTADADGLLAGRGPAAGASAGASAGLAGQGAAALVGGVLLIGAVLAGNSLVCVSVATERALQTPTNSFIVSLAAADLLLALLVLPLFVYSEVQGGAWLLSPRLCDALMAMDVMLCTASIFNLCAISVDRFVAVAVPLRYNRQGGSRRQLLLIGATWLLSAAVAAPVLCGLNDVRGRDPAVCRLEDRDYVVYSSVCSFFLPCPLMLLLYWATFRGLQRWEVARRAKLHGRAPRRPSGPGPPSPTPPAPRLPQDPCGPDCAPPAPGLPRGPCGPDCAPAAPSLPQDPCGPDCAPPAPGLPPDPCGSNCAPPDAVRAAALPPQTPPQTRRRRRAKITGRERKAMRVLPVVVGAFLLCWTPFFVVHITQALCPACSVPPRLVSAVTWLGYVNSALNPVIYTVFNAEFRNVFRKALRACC
Briefly: radioligand binding with [^3H]spiperone, D4.4. Conditions: [^3H]spiperone, CHO membranes, mean of 2 to 4 experiments. The protocol: as §1

A further data set concerns the target T4, human D3 receptor (Homo sapiens, UniProt P35462).
T4 construct: expressed in transfected cells; host or cells: Chinese hamster ovary (CHO) cells, membranes
Kind of data set: radioligand binding with [^3H]spiperone, D3. Conditions: [^3H]spiperone, CHO membranes, mean of 2 to 4 experiments. The protocol:
as §1

For the next data set, the target named is T5, human D2short receptor (Homo sapiens, UniProt P14416).
T5 construct: expressed in transfected cells; host or cells: Chinese hamster ovary (CHO) cells, membranes
T5 sequence (P14416 1-414 isoform P14416-2): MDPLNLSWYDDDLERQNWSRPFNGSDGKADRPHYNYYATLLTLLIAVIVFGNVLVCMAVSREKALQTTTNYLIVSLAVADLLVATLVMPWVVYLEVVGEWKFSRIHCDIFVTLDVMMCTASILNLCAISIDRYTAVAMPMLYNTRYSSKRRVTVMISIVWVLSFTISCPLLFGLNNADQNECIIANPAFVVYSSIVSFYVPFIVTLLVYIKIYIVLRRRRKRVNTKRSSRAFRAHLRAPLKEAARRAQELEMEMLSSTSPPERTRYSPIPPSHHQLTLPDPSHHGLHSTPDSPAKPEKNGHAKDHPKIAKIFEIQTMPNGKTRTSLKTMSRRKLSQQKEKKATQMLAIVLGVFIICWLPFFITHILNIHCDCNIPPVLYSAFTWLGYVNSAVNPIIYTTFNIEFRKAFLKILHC
Briefly: radioligand binding with [^3H]spiperone, D2short. The conditions noted are these: [^3H]spiperone, CHO membranes, mean of 2 to 4 experiments; read-out: Ki D2sh. The protocol: as §1

For another data set, the target named is T6, 5-HT2 receptor (Sus scrofa, UniProt P50129).
T6 construct: membrane preparations from porcine cortical material; from tissue; host or cells: porcine cerebral cortex membranes
T6 sequence (P50129 whole entry): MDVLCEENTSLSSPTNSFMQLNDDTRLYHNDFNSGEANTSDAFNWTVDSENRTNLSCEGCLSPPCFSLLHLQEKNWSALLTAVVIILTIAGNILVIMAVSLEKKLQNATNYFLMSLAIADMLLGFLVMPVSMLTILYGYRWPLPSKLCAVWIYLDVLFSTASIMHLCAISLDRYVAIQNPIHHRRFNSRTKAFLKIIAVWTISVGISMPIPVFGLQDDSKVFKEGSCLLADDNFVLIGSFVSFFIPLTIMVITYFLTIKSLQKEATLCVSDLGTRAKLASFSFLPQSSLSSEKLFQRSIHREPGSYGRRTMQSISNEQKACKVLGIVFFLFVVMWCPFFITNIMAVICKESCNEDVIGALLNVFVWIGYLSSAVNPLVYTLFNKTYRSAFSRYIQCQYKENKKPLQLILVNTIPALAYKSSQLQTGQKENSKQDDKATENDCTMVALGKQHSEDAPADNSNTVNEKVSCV
Briefly: radioligand binding, porcine cortical membranes, [^3H]ketanserin. The conditions noted are these: porcine cortical membranes, [^3H]ketanserin.

For data set [1], the target named is dopamine D2short receptor (Homo sapiens, UniProt P14416). Briefly: [^35S]GTPγS-incorporation assay, intrinsic activity.
Sequence of dopamine D2short receptor (P14416 1-414 isoform P14416-2): as the sequence (P14416 1-414 isoform P14416-2) above
[2] abbreviates: read-out: D2short: [^35S]GTPγS intrinsic activity, % activity of quinpirol.
Setting [3] is: read-out: D2short: [^35S]GTPγS intrinsic activity.

Read-outs that look alike come from different tables or passages of the source.

T4 sequence (P35462 whole entry): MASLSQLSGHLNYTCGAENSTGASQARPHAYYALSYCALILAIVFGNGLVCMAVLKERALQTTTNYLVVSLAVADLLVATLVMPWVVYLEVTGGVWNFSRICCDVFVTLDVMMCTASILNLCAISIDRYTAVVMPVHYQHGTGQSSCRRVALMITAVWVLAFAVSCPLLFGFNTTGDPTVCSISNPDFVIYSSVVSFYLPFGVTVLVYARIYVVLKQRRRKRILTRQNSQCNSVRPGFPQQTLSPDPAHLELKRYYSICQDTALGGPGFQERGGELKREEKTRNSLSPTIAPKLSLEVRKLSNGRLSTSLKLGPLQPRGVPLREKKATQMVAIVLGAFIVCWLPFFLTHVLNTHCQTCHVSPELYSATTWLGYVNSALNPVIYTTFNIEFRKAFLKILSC

A word on the Ki: it is a measure of affinity in units of concentration, obtained from inhibition or displacement. As a reminder, the melting point is the temperature, or range, at which the solid turns liquid. `COc1ccccc1N1CCN(CCCCOc2ccn3nnnc3c2)CC1` [Example E97, 7-[4-[4-(2-Methoxyphenyl)piperazin-1-yl]butoxy]tetrazolo[1,5-a]pyridine] had a melting point of 124 °C. Moreover, the Ki at 5-HT1A receptor was under 30 nM. In addition, the Ki on human D2long receptor is under 30 nM. At human D4.4 receptor, this compound registered an inhibition constant Ki of under 30 nM. At human D3 receptor, this compound displayed a Ki of under 30 nM. For the same compound, the Ki at human D2short receptor was under 30 nM. In addition, the Ki on 5-HT2 receptor was over 3000 nM.

As for `Clc1cccc(N2CCN(CCCCOc3ccn4ncc(Cl)c4c3)CC2)c1Cl` [Example E45, 3-Chloro-5-[4-[4-(2,3-dichlorophenyl)piperazin-1-yl]butoxy]pyrazolo[1,5-a]pyridine], the melting point was determined as 133 °C. This compound also showed a Ki at 5-HT1A receptor of 30 to 300 nM. The Ki on human D2long receptor was in the range of 30 to 300 nM. The compound further came in with an inhibition constant Ki on human D4.4 receptor of 30 to 300 nM. This compound also registered a Ki at human D3 receptor of under 30 nM. For the same compound, at human D2short receptor, the inhibition constant (Ki) lay within 30 to 300 nM. For the same compound, in data set [1] (setting [2]), the Emax fell in the range of 15 to 40%. For the same compound, on 5-HT2 receptor, the Ki was in the range of 301 to 3000 nM.

On to `Clc1ccc(N2CCN(CCCCOc3ccn4nccc4c3)CC2)cc1` [Example E19, 5-[4-[4-(4-Chlorophenyl)piperazin-1-yl]butoxy]pyrazolo[1,5-a]pyridine], for which the melting point turned out to be 125 °C. For the same compound, at 5-HT1A receptor, the Ki was 30 to 300 nM. The inhibition constant (Ki) on human D2long receptor lay within 30 to 300 nM. On human D4.4 receptor, this compound had a Ki of 30 to 300 nM. The same compound came in with an inhibitory constant (Ki) on human D3 receptor of 30 to 300 nM. Moreover, the Ki at human D2short receptor was in the range of 30 to 300 nM. Further, the Emax in data set [1] (setting [2]) lay in the range of 15 to 40%. The same compound registered a Ki on 5-HT2 receptor of 301 to 3000 nM.

Turning to `Clc1ccccc1N1CCN(CCCCOc2ccc3ccnn3c2)CC1` [Example E53, 6-[4-[4-(2-Chlorophenyl)piperazin-1-yl]butoxy]pyrazolo[1,5-a]pyridine], the melting point stood at 86 °C. The compound further yielded a Ki at 5-HT1A receptor of under 30 nM. In addition, at human D2long receptor, the inhibition constant (Ki) is under 30 nM. Further, the Ki at human D4.4 receptor was under 30 nM. This compound displayed an inhibition constant Ki at human D3 receptor of under 30 nM. Besides, the inhibition constant Ki at human D2short receptor is under 30 nM. The Emax in data set [1] (setting [2]) is under 15%. The compound also had an inhibitory constant (Ki) at 5-HT2 receptor of 301 to 3000 nM.

`O=[N+]([O-])c1cccc(N2CCN(CCCCOc3ccn4nccc4c3)CC2)c1` [Example E65, 5-[4-[4-(3-Nitrophenyl)piperazin-1-yl]butoxy]pyrazolo[1,5-a]pyridine] came in with a melting point of 73 °C.

Compound `Clc1ccccc1N1CCN(CCCCOc2ccn3ncc(I)c3c2)CC1` [Example E50, 5-[4-[4-(2-Chlorophenyl)piperazin-1-yl]butoxy]-3-iodo-pyrazolo[1,5-a]pyridine] gave a melting point of 94 °C. The same compound registered a Ki at 5-HT1A receptor of 30 to 300 nM. The inhibition constant Ki on 5-HT2 receptor is 301 to 3000 nM.

Regarding `Clc1cccc(N2CCN(CCCCOc3ccn4nnnc4c3)CC2)c1Cl` [Example E63, 7-[4-[4-(2,3-Dichlorophenyl)piperazin-1-yl]butoxy]tetrazolo[1,5-a]pyridine], the melting point came to 138 °C. Besides, the Ki on 5-HT1A receptor was 30 to 300 nM. Besides, the inhibitory constant (Ki) on human D2long receptor was under 30 nM. The compound also came in with a Ki at human D4.4 receptor of under 30 nM. This compound also came in with a Ki on human D3 receptor of under 30 nM. In addition, at human D2short receptor, the Ki is under 30 nM. This compound also gave a Ki on 5-HT2 receptor of 30 to 300 nM.

Consider `Clc1ccccc1N1CCN(CCCCOc2ccn3ncc(Br)c3c2)CC1` [Example E44, 3-Bromo-5-[4-[4-(2-chlorophenyl)piperazin-1-yl]butoxy]pyrazolo[1,5-a]pyridine], for which the melting point is 84 °C. In addition, in data set [1] (setting [3]), the Emax fell in the range of 15 to 40%.

`Nc1cccc(N2CCN(CCCCOc3ccn4nccc4c3)CC2)c1` [Example E66, 5-[4-[4-(3-Aminophenyl)piperazin-1-yl]butoxy]pyrazolo[1,5-a]pyridine] had a melting point of 86 °C.

Take `Clc1ccccc1N1CCN(CCCCOc2ccn3nnnc3c2)CC1` [Example E98, 7-[4-[4-(2-Chlorophenyl)piperazin-1-yl]butoxy]tetrazolo[1,5-a]pyridine]: the melting point amounted to 101 °C. Moreover, the inhibitory constant (Ki) on 5-HT1A receptor is under 30 nM. The inhibition constant (Ki) at human D2long receptor was under 30 nM. The compound further gave an inhibitory constant (Ki) on human D4.4 receptor of under 30 nM. Moreover, the inhibition constant (Ki) on human D3 receptor was under 30 nM. Moreover, the Ki on human D2short receptor is under 30 nM. The compound also returned a Ki on 5-HT2 receptor of 301 to 3000 nM.

Regarding `COc1ccccc1N1CCN(CCCCOc2ccn3ncc(C)c3c2)CC1` [Example E75, 5-[4-[4-(2-Methoxyphenyl)piperazin-1-yl]butoxy]-3-methylpyrazolo[1,5-a]pyridine], the inhibition constant (Ki) is under 30 nM at 5-HT1A receptor; under 30 nM at human D2long receptor; under 30 nM at human D4.4 receptor; under 30 nM at human D3 receptor; under 30 nM at human D2short receptor; 301 to 3000 nM at 5-HT2 receptor. Also, the Emax in data set [1] (setting [2]) is under 15%.

Consider `ON=Cc1cnn2ccc(OCCCCN3CCN(c4cccc(Cl)c4Cl)CC3)cc12` [Example E33, (s-cis) 5-[4-[4-(2,3-Dichlorophenyl)piperazin-1-yl]butoxy]pyrazolo[1,5-a]pyridine-3-carbaldehyde oxime], for which the Ki on 5-HT1A receptor is 30 to 300 nM; at human D2long receptor it was under 30 nM; at human D4.4 receptor, under 30 nM; on human D3 receptor, under 30 nM; on human D2short receptor it was under 30 nM; at 5-HT2 receptor, 30 to 300 nM. Also, the “D2short: [^35S]GTPγS intrinsic activity” value in data set [1] (% activity of quinpirol) is recorded as “A (A=Full antagonist (<15%))”.

With `O=Cc1cnn2c(OCCCCN3CCN(c4ccccc4Cl)CC3)cccc12` [Example E62, 7-[4-[4-(2-Chlorophenyl)piperazin-1-yl]butoxy]pyrazolo[1,5-a]pyridine-3-carbaldehyde], the inhibition constant (Ki) is under 30 nM at 5-HT1A receptor; 30 to 300 nM on human D2long receptor; 30 to 300 nM at human D4.4 receptor; 30 to 300 nM on human D3 receptor; under 30 nM on human D2short receptor; 30 to 300 nM on 5-HT2 receptor. Besides, the Emax in data set [1] (setting [3]) was 15 to 40%.

Regarding `COc1ccccc1N1CCN(CCCCOc2ccn3ncc(CO)c3c2)CC1` [Example E72], the inhibitory constant (Ki) on 5-HT1A receptor was under 30 nM; at human D2long receptor, under 30 nM; at human D4.4 receptor, under 30 nM; on human D3 receptor it was under 30 nM; at human D2short receptor, under 30 nM; on 5-HT2 receptor, 301 to 3000 nM. Besides, the Emax in data set [1] (setting [2]) lay within 15 to 40%.

With `COc1ccccc1N1CCN(CCCCOc2ccn3ncc(CN)c3c2)CC1` [Example E78, 3-Aminomethyl-5-[4-[4-(2-methoxyphenyl)piperazin-1-yl]butoxy]pyrazolo[1,5-a]pyridine], the inhibition constant Ki on 5-HT1A receptor was under 30 nM; at human D2long receptor, under 30 nM; at human D4.4 receptor, under 30 nM; on human D3 receptor, under 30 nM; on human D2short receptor, under 30 nM; on 5-HT2 receptor, 301 to 3000 nM. In addition, the Emax in data set [1] (setting [2]) was in the range of 15 to 40%.

`Clc1ccccc1N1CCN(CCCCOc2cccc3ccnn23)CC1` [Example E59, 7-[4-[4-(2-Chlorophenyl)piperazin-1-yl]butoxy]pyrazolo[1,5-a]pyridine]: the inhibitory constant (Ki) at 5-HT1A receptor was 30 to 300 nM; on human D2long receptor, 30 to 300 nM; at human D4.4 receptor, under 30 nM; on human D3 receptor it was under 30 nM; at human D2short receptor, 30 to 300 nM; on 5-HT2 receptor, 30 to 300 nM. In addition, the Emax in data set [1] (setting [3]) fell in the range of 15 to 40%.

For `ON=Cc1cnn2ccc(OCCCCN3CCN(c4cccc(Cl)c4Cl)CC3)cc12` [Example E30, (s-trans) 5-[4-[4-(2,3-Dichlorophenyl)piperazin-1-yl]butoxy]pyrazolo[1,5-a]pyridine-3-carbaldehyde oxime], the inhibition constant (Ki) on 5-HT1A receptor was under 30 nM; on human D2long receptor it was under 30 nM; on human D4.4 receptor, under 30 nM; at human D3 receptor, under 30 nM; at human D2short receptor it was under 30 nM; at 5-HT2 receptor, 30 to 300 nM. Also, the Emax in data set [1] (setting [2]) was under 15%.

Values taken from patent US20100168125A1, “INDOLIZINES AND AZA-ANALOG DERIVATIVES THEREOF AS CNS ACTIVE COMPOUNDS” (priority 2007, published 2010).
